According to patent US4416877A, “Anti-atherosclerotic pharmaceutical compositions containing diphosphonate compounds” (priority 1979, dated 1983):
Counter-ions that a name gives are not always drawn. Like-named read-outs stand apart in the source and are kept apart here.

Tests used:
lipid metabolism = experiment: Effects of diphosphonates on lipid metabolism in normal rats (serum lipids, α/β cholesterol); assay type: in vivo, male Wistar rats; conditions: for change in vivo at 200 mg/kg/day: Rattus norvegicus, po; for change in vivo at 200 mg/kg/day / Serum Free Fatty Acids (% control values) / Serum Triglycerides (% control values): normal rats (N), 200 mg/kg/day p.o.; for Serum Free Fatty Acids (% control values) / Serum Triglycerides (% control values): 200 mg/kg/day
Method: Effects of diphosphonates of formula (I) on lipid metabolism in normal rats Groups of 4 to 5 normal male Wistar rats, weighing about 200 g were treated with diphosphonates (200 mg/kg/day) p.o. for 4 to 21 days. Water soluble compounds were given in solution in 24 mM bicarbonate buffer. Lipid soluble compounds were given in corn oil. The rats were weighed, sacrificed by decapitation (under light ether anesthesia) after overnight fasting. Blood was collected and serum used for analysis. The following blood parameters reflecting changes in lipid metabolism are reported: […]
free fatty acids measured according to W. G. Duncombe (Clin. Acta 9, 122, 1964) triglycerides enzymatic method (Boehringer Mannheim Kit 126 012) phospholipids: molybdate/vanadate reaction (Boehringer Mannheim Kit 124 974) β-lipoprotein cholesterol was measured after heparin, CaCl2 precipitation according to M. Burstein et al. (La Presse Medicale 43, 974, 1958) and to D. Watson (Clin. Chim. Acta 5, 637, 1960).
(§1) In above Table IV, results are given as % control values. Except for serum calcium, values which differ from control values by less than 15% are considered as non significant (NS).
Serum free fatty acids, triglycerides and phospholipids were measured in normal rats (N) and rats previously fed a cholesterol diet for 10 days (C.F.) Serum α/β cholesterol, total lipids and cholesterol of liver and aorta were determined in normal rats (N) and rats which had previously been fed on high cholesterol diet (C.F.)

tissue cholesterol = experiment: Effects in cholesterol fed rats (serum, liver and aorta lipids); assay type: in vivo; conditions: cholesterol fed rats (C.F), 200 mg/kg/day; for change in vivo at 200 mg/kg/day: Rattus norvegicus
Method: Effects of diphosphonates of formula (I) in cholesterol fed rats
In order to increase tissue cholesterol, especially liver, rats were fed a high fat-high cholesterol diet for 10 days to 3 months, with the following diet composition: casein 20%, butter 37%, cellulose 9.1%, dextrose 18,9%, cholesterol 4.5%, sodium cholate 1.8%, minerals 7.3%, vitamins 1%, choline 0.4%.
The rats were then fed normal food and were treated for 10 days to 3 months with different compounds (200 mg/kg/day). Serum parameters described above were measured. Liver and aorta lipids were extracted according to J. Folch et al (J. Biochem. 226, 497, 1957). Total lipids were determined by the sulfophosphovanillic reaction (see N. Zolner and K. Kirsch, Z. Ges. exp. Med. 135, 545, 1962) and cholesterol by the Liebermann-Burchard reaction or appropriate enzymatic reaction.
as §1
Serum free fatty acids, triglycerides and phospholipids were measured in normal rats (N) and rats previously fed a cholesterol diet for 10 days (C.F.)
Serum α/β cholesterol, total lipids and cholesterol of liver and aorta were determined in normal rats (N) and rats which had previously been fed on high cholesterol diet (C.F.)

serum calcium = experiment: Effects of acid and salt form of diphosphonates in hypercalceamic rats; assay type: in vivo, male Wistar rats; conditions: for Serum Calcium (% control values): 15% NS limit does not apply; for decrease of serum calcium: about 50 mg/kg/day in drinking water, 15 days
Method: Effects of acid and salt form of diphosphonates of formula (I) in hypercalceamic rats
To verify this activity the acid form of compound 4 and is monosodium salt counterpart (compound 10) were also tested by using a protol similar to the one described by Potokar (see above). Briefly, groups of 4 male Wistar rats received acid or salt form of compound 4 as 0.05% solution in drinking water corresponding to about 50 mg/kg/day. The rats were treated with the compounds for 15 days.
Serum calcium was measured in hypercalceamic rats.

[1] = system: alpha/beta cholesterol ratio; experiment: Comparison of clofibrate, gemfibrozil and fenofibrate to compound 16: alpha/beta cholesterol ratio in normal Wistar rats; assay type: in vivo; conditions: 100 mg/kg for 10 days, n = 5
Method: It should be noted that these diphosphonate compounds are different and novel in comparison to the classical hypolipidemic compounds as illustrated in Table V. The diphosphonate ester used for comparison was the only one to increase the alpha/beta cholesterol ratio in control rats.
Each drug was administered at 100 mg/kg for 10 days

HDL cholesterol = conditions: rats; Day et al., Muller and Cortesi; cited from earlier work
Oral LD50 toxicity = assay type: in vivo; conditions: in vivo; oral
Text: Following the extensive pharmacological screening of these compounds, using over 2000 animals, those showing the most potential were then subjected to toxicity testing for further selection relative to their activity/toxicity risk profiles
By way of LD50 (Lethal Dose 50) the methyl diphosphonates were discovered to have a significant lower degree of toxicity. […] This represents a significant six fold difference in toxicity.

[2] = system: aorta and kidney calcification; conditions: hypercalceamic animal model; cited from earlier work
[3] = read-out: Serum Chol. α/β (% control values)
[4] = read-out: Serum Phospholipids (% control values)
[5] = read-out: Liver Chol. (% control values)
[6] = read-out: Serum Triglycerides (% control values)

SMILES: O=P(O)(O)C(O)(c1ccc(Cl)cc1)P(=O)(O)O [4 Acid, hydroxy (p-chlorophenyl) methylenediphosphonic acid]
- change in vivo at 200 mg/kg/day (lipid metabolism; [3]): < 15%
- change in vivo at 200 mg/kg/day (lipid metabolism; [4]): < 15%
- Serum Free Fatty Acids (% control values) (lipid metabolism): -17%
- Serum Triglycerides (% control values) (lipid metabolism): -29%
- decreases in serum triglycerides (lipid metabolism; rats): Significant decreases
- property to change lipid metabolism / increase HDL (lipid metabolism; rats): do not have these properties
- change in vivo at 200 mg/kg/day (tissue cholesterol; [5]): < 15%
- change in vivo at 200 mg/kg/day (tissue cholesterol; read-out: Liver Total Lipids (% control values)): < 15%
- Aorta Chol. (% control values) (tissue cholesterol): NS (Except for serum calcium, values which differ from control values by less than 15% are considered as non significant (NS))
- Aorta Total Lipids (% control values) (tissue cholesterol): NS (Except for serum calcium, values which differ from control values by less than 15% are considered as non significant (NS))
- Serum Calcium (% control values) (serum calcium): -20%
- decrease of serum calcium (serum calcium; listed as acid form of compound 4): 20%

SMILES: CCOC(=O)C(C)(C)Oc1ccc(Cl)cc1 [Clofibrate, reference compound]
- change in vivo at 200 mg/kg/day (lipid metabolism; [3]): < 15%
- change in vivo at 200 mg/kg/day (lipid metabolism; read-out: Serum Free Fatty Acids (% control values)): < 15%
- change in vivo at 200 mg/kg/day (lipid metabolism; [4]): -34%
- change in vivo at 200 mg/kg/day (lipid metabolism; [6]): 19%
- decrease of plasma phospholipids (lipid metabolism; rats, comparison): 33.6%
- decrease of α/β ratio (lipid metabolism; rats, comparison): 52.2%
- change in vivo at 200 mg/kg/day (tissue cholesterol; [5]): < 15%
- alpha/beta Cholesterol Ratio [1]: 2.76 ± 0.40
- HDL cholesterol (HDL cholesterol): decreases HDL cholesterol

SMILES: O=P(O)(O)C(O)(c1ccc(Cl)cc1)P(=O)(O)O [Compound 10, 1-hydroxy 1 (p-chlorophenyl)methane 1,1-diphosphonic acid, monosodium salt]
- Serum Free Fatty Acids (% control values) (lipid metabolism; monosodium salt): -27%
- Serum Triglycerides (% control values) (lipid metabolism; monosodium salt): -17%
- Serum Calcium (% control values) (serum calcium; monosodium salt): -14%
- decrease of serum calcium (serum calcium; listed as salt form of compound 4, monosodium salt): 14%

SMILES: CCOP(=O)(OCC)OC(c1ccc(Cl)cc1)P(=O)(OCC)OCC (stereo not drawn) [Compound 24]
- change in vivo at 200 mg/kg/day (lipid metabolism; [3]): < 15%
- change in vivo at 200 mg/kg/day (lipid metabolism; [4]): < 15%
- change in vivo at 200 mg/kg/day (lipid metabolism; [6]): < 15%
- LD50 (Oral LD50 toxicity): 547 mg/kg

SMILES: CC(C)OC(=O)C(C)(C)Oc1ccc(C(=O)c2ccc(Cl)cc2)cc1 [Fenofibrate]
- alpha/beta Cholesterol Ratio [1]: 1.19 ± 0.20

SMILES: Cc1ccc(C)c(OCCCC(C)(C)C(=O)O)c1 [Gemfibrozil]
- alpha/beta Cholesterol Ratio [1]: 5.33 ± 0.31

SMILES: O=P(O)(O)C(Cl)(Cl)P(=O)(O)O [dichloromethylene diphosphonate]
- aorta and kidney calcification [2]: inhibit aorta and kidney calcification
- vitamin D-induced rise in plasma calcium [2]: prevent the vitamin D-induced rise in plasma calcium
